The values that follow come from publication PMC5398698, “Uncovering the molecular and physiological processes of anticancer leads binding human serum albumin: A physical insight into drug efficacy” (PLoS ONE, 2017).

Series [1] deals with T1, Human serum albumin (HSA) (Homo sapiens, UniProt P02768).
T1 construct: purchased Sigma-Aldrich A3782
As to the kind of experiment: SPR binding kinetic measurement on immobilized HSA. Here is the method:
Binding kinetic measurement was performed using Reichert 4-chanel SPR instrument Reichert4SPR (Reichert, USA). HSA was immobilized on carboxymethyl dextran chip at the condition of 0.1 mg/mL protein in 10 mM sodium acetate (pH 4.5). The final density is about 12,000 RU and flow rate is 20 μl/min. During immobilizing, the sensor chip was preconditioned with 3-min injection of double diluted water. Thereafter, the first flow cell surface was activated through using 0.05 M N-hydroxysuccinimide (NHS)/0.2 M 1-ethyl-3-(3-dimethylaminopropyl)carbodiimide hydrochloride (EDC) for 7 min, and then functionalized by injecting a solution of HSA (0.1 mg/mL) in 10 mM sodium acetate buffer (pH 4.5) for 20 min. Finally, unreacted NHS groups were deactivated with 1 M ethanolamine (pH 8.5) for 10 min. Simultaneously, the control flow cell was treated using the same conditions as described above. […] Final data obtained were corrected for instrumental and bulk artifacts by double referencing to a control sensor chip surface and blank buffer injection. The binding responses were concentration-dependent and dissociation constant KD values were derived from 1:1 kinetic model as well as steady state analysis using TraceDrawer software (Reichert, USA).
In general terms: SPR reads the build-up and loss of mass on a sensor chip optically.

The next series deals with plasma proteins. As to the kind of experiment: Estimate of fraction bound to plasma proteins from association constants. As to conditions: estimated with Kd / ([P]f + Kd). Also noted: species or system human. From the text:
The function of HSA as drug carrier may facilitate drug access to the action site and be related to drug safety issues. Application of HSA on drug delivery may therefore be important in anticancer therapy, which has been taken into account in estimating therapeutic outcomes, particularly for highly bound compounds (defined as < 5% free drug compounds in blood). The free to bound drug rates can be estimated by using the formula Kd / ([P]f + Kd) through approximating the free protein concentration as [P]f = [P]T − [L]T [41]. […] Therefore, the affinity determines the steady state concentration of unbound or exposed drug in the plasma, maintaining a concentration gradient between the intestinal lumen and plasma, which is considered as the only fraction exerting the bioactivity. […] Moreover, both hepatic uptake and glomerular filtration are directly proportional to the free drug fraction presented in the plasma while drugs are modulated by the affinity difference of the plasma and tissue proteins. If a drug is highly bound to HSA and has a high extraction raio, the binding promotes metabolism by transporting the drug to liver, resulting in the decrease of free drug fraction. On the other hand, if a drug has a low liver extraction ratio, metabolism will be decreased by high HSA binding. […]

For series [2], the target named is T1, Human serum albumin (HSA). As to the kind of experiment: Steady-state fluorescence quenching of HSA by anticancer leads. The settings on record: for ΔG: temperature-dependent fluorescence quenching. The class given is binding. As for the experimental part:
Steady-state fluorescence spectra were recorded on an Eclipse fluorescence spectrophotometer (Agilent Cary, USA) with a 1 cm path length quartz cuvette at 293 K and 298 K, respectively. Sample temperature was kept within ± 0.2 degree by recycled water throughout the experiment. The excitation and emission band passes were all set at 5 nm by keeping the excitation wavelength at 290 nm to achieve maximum fluorescence emission. The emission spectra was measured in the region of 305–450 nm, and the fluorescence intensity at peak position 340 nm was extracted for further analysis. HSA was diluted from stock solution with reaction buffer to a concentration of 10 μM for each quenching experiment. Titration was performed by successive addition of 1 mM anticancer leads into quartz cuvette, and the minor intensity decrease due to volume change was corrected by the control experiment.
In Fluorescence quenching, the inner filter effect (IFE) is of importance due to its effect on the emission intensity. One of the biggest causes of the IFE is the re-absorption of the emitted light in the excitation and emission region. It is an important issue that these effects cause severe underestimation of the fluorescence intensity measured because the concentration of the quencher increases when a Stern-Volmer analysis is carried out, and therefore the ability of the quencher to absorb the emitted light will also increase.
Where Aem and Aex represent the absorbance of small moecule at emission and excitation wavelength, respectively. F0 and Fc represent the observed fluorescence intensity and corrected fluorescence intensity, respectively.
In an attempt to gain insight into the molecular mechanism of HSA association, we have determined the binding mechanism, binding constant, binding site, and the number of binding sites. […] (1) Where F and F0 is the steady state fluorescence intensity in the presence and absence of quencher, respectively; Kq, τ0 and [Q] is the quenching rate constant, the average lifetime of the molecule without quencher and the concentration of quencher, respectively.
Modified Stern-Volmer plots are shown in Fig 3C and 3D, showing good linearity to modified Stern-Volmer equation: log[(F0−F)/F]=logKA+nlog[Q] (2)
F0−F/F0=Bmax(KA[Q])^h/1+(KA[Q])^h+Pnsb×[Q] (3)
Where F and F0 are the steady state fluorescence intensity in the presence and absence of quencher, respectively; [Q] is the concentration of quencher, Bmax is the maximum independent binding site classes, KA is the effective binding affinity; h is the Hill coefficient that describes the degree of ligand binding cooperativity and Pnsb is the nonspecific binding coefficient.
Usually, the types of interaction forces between small molecules and macromolecules mainly include hydrogen bonds, van der Waals forces, electrostatic interactions and hydrophobic interactions. To estimate the binding mode, the thermodynamic parameters, ΔH, ΔS and ΔG are often considered. On the basis of the characteristic signs of the thermodynamic parameters, the interaction forces between small molecule and protein can be assigned to hydrophobic interaction (ΔH > 0, ΔS > 0), van der Waals force (ΔH < 0, ΔS < 0) and electrostatic attraction (ΔH < 0, ΔS > 0). The entropy and enthalpy can be considered constant at a constant temperture, which is regulated by the van’t Hoff equation: lnKA=−ΔH/RT+ΔS/R (4)

For series [3], the target named is T1, Human serum albumin (HSA). As to the kind of experiment: Fluorescence resonance energy transfer (FRET) distance HSA W214 to lead. It counts as binding. The settings on record: Forster theory; k^2 = 2/3, N = 1.36, Φ = 0.15. From the text:
Fluorescence resonance energy transfer (FRET) occurs when the UV absorption spectrum of small molecule (acceptor) overlaps with the fluorescence emission spectrum of fluoreophore (donor). The fluorescence emission peak of HSA mostly locates in the range of the UV-vis absorption spectra of the two anticancer leads (Fig 5A and 5B). This indicates the possibility of FRET occuring between HSA and anticancer leads. According to Forster’s non-radiative energy transfer theory, the distance r between donor W214 of HSA and the acceptor of small molecule is determined by the relationship below: E=1−F/F0=R0^6/R0^6+r^6 (5) where E is the energy transfer efficiency; F and F0 are the fluorescence intensity in the presence and absence of quencher. […] In this case here, k^2 = 2/3 is for random orientation as in fluid solution, N = 1.36, Φ = 0.15, and J is calculated as: J=∑F(λ)ε(λ)λ^4Δλ/∑F(λ)Δλ (7) where F(λ) is the fluorescence intensity of the fluorescence donor of wavelength λ; and ε(λ) is the molar absorption coefficient calculated by Lambert-Beer relationship ε(λ) = A(λ)/cl at wavelength λ. The integration step was chosen to be the scanning data interval of 1 nm.

For series [4], the target named is T1, Human serum albumin (HSA). As to the kind of experiment: Isothermal titration calorimetry (ITC) of leads binding HSA. As to conditions: 310 K. Here is the method: The calorimetry measurement was carried out by isothermal titration calorimetry (ITC) (TA Instruments, USA) at 310 K. HSA in different reaction buffers (0.01 M PBS and 0.025 M MES) were extensively dialyzed before titration. […] The titration was afterward started with continuously stirring at 250 rpm. The raw heat rate data were integrated under injection peaks to obtain the reaction heat of each injection after substracting dilution heat which was measured by injecting with a blank control titration. The calculated heat changes were analyzed using the NANOanalyze software (TA Instruments, USA) and replotted with Origin 8.5. The free energy change (ΔG), enthalpy change (ΔH) and entropy change (ΔS) were calculated according to the thermodynamic formulas below: ΔG=−RTlnKA=ΔH−TΔS
Where KA is the association constant at the absolute temperature T (310 K) and R represents the gas constant (8.3151 J mol^-1K^-1).
(In general: Isothermal titration calorimetry measures the heat released or taken up as one component is titrated into another.)

Read-outs that look alike come from different tables or passages of the source.

T1 sequence (P02768 25-609): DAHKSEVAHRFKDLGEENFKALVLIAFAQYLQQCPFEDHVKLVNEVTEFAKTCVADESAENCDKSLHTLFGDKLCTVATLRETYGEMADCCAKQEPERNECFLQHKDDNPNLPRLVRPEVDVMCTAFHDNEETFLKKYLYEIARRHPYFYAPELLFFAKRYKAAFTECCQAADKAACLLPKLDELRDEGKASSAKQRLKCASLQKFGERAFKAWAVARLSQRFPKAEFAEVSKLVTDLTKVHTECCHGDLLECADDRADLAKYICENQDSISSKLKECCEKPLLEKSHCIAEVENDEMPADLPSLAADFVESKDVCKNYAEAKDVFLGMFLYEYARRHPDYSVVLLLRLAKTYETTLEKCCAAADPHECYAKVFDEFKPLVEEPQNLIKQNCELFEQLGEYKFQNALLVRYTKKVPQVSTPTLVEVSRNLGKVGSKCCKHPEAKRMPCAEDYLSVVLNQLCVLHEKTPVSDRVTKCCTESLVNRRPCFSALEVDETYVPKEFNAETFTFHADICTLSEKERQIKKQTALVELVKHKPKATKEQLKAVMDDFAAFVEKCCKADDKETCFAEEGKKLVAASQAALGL

As usually defined, the Kd is the equilibrium constant for the complex coming apart. Take `CC(=O)OCCC(C)CCC=C(C)C` (centres unmarked) [NSC48693]: the “dissociation rate slower than that of NSC290956” value in series [1] was “approximately 5 fold”. Further, the kinetic behavior result in series [1] (SPR sensorgram shape) was “fast-on and slow-off”. Also, in series [1] (SPR, 1:1 kinetic model), the “Ka (association rate constant)” value is 2410 M⁻¹ s⁻¹ and the “koff (dissociation rate constant)” value was 0.0333 s⁻¹. Moreover, the Kd in series [1] (SPR, 1:1 kinetic model, read-out: KD (dividing kinetic parameters, 1:1 model)) stood at 13.8 µM. Further, the Kd in series [1] (SPR, steady-state phase data, read-out: Steady State KD) is 12.3 µM. In series [1] (as measured with different experimental methods), the “binding affinity to HSA larger than that of NSC290956” value is reported as 3~8 fold. Also, the “compound bound to plasma proteins” value in the series on plasma proteins is “over 98%”. For the same compound, the “n (reaction stoichiometric number, modified Stern-Volmer)” value in series [2] (293 K) was 0.91 ± 0.013. The “binding constant KA (modified Stern-Volmer)” value in series [2] (293 K, fit to Eq (2)) is recorded as 3.31 ± 0.16 × 10^4 M^-1. Besides, the “Hill coefficient h (nonlinear regression fitting)” value in series [2] (293 K, one class of binding sites) was approximately 1.0. Moreover, the ΔG in series [2] (T 293 K) was -23.49 kJ/mol. The same compound had a ΔG in series [2] (T 298 K) of -23.58 kJ/mol. Besides, the “n obtained by Hill equation” value in series [2] (as quoted in the ITC comparison) was 0.91. In addition, the “quenching rate constant Kq (Stern-Volmer)” value in series [2] (fluorescence lifetime of tryptophan in HSA around 10^-8 s, 10 μM HSA) is 1.36 ± 0.016 × 10^12 M^-1s^-1. In addition, in series [2] (van't Hoff, 293 K and 298 K), the ΔH is -19.03 kJ/mol and the ΔS was 15.27 J mol^-1 K^-1. Moreover, the “donor-acceptor distance r between HSA and lead” value in series [3] amounted to 3.65 nm. Besides, in series [4], the stoichiometry number came to 0.94 ± 0.06, the ΔG was -28.86 kJ/mol, the ΔH is -23.35 ± 2.53 kJ/mol and the ΔS is given as 17.81 J mol^-1 K^-1. The “binding constant (KA)” value in series [4] (one-site independent model) is given as 7.29 ± 2.68 × 10^4 M^-1.
